Assay results published in patent US5096929A, “2-amino-1,2,3,4-tetrahydronaphthalene derivatives with cardiovascular activity, process for their preparation and pharmaceutical compositions containing them” (Chiesi Farmaceutici S.p.A., priority 1989, dated 1992).
Counter-ions that a name gives are not always drawn. Like-named read-outs stand apart in the source and are kept apart here. One block for each compound: values may come before it.

Columns and labels:
[1] = tested on: isolated rat left atrium; experiment: Isolated rat left atrium: inotropic activity (force); details: for EC50 / Emax: Rattus norvegicus; for EC50: read-out: EC50, left atrium (force); for Activity in isolated rat left atrium and right atrium (in words): Table I and text; for Inotropic activity of diastereoisomeric mixture (in words): rat isolated left atrium
Procedure: (§1) The inotropic and chronotropic effects of compound (Ia) of the invention were determined in vitro using, respectively, isolated rat left atrium and right atrium.
Left atrium:inotrocic activity
The atria were subjected to a 0.5 g starting tension and suspended in a bath containing aerated Krebs-Henseleit j solution with 95% O2 and […] kept at 32.C. The preparation was stimulated at a 4 Hz frequency with pulses during 5 msec each. The contraction strength was detected by an isometric transducer and recorded on a microndynamometer.
(§2) The results were expressed as the percentage of the response obtained with a maximal dose ([…]) of isoproterenol which was determined at the beginning of the test. In Table 1 the potency (EC50=effective concentration inducing the 50% of the maximal effect) and the relative intrinsic activity (expressed as α and compared with that of isoproterenol, taken=1) are shown.
(§3) The effects of the compounds were evaluated in rat isolated atria according to the previously described method.
(§4) Table 3. Potency (EC50) and intrinsic activity (α;isoproterenol=1) on the isolated rat left atrium (Inotropic activity) and right atrium (chronotropic activity).

[2] = tested on: isolated rat right atrium; experiment: Isolated rat right atrium: chronotropic activity (frequency); details: Rattus norvegicus; for EC50: read-out: EC50, right atrium (frequency)
Procedure: as §1
Right atrium:chronotrpic activity
The preparation was prepared in the same way and under the same conditions as described above, but was not subjected to electric stimulation. Frequency was monitored by a cardiotachograph.
as §2, §3, §4

[3] = molecular target: T1, beta-2 adrenergic receptors (Cavia porcellus, UniProt Q8K4Z4); experiment: Isolated guinea-pig trachea: interactions with beta-2 adrenergic receptors (relaxation of carbachol contraction); details: for EC50: guinea-pig trachea, carbachol 3×10^-7 M
T1 construct: Trachea strips were isolated and prepared according to the method described by Emerson J and Machay D; from tissue; host or cells: guinea-pig isolated trachea strips
Procedure: The selectivity of this interaction has been studied by evaluating the effects on beta-2 adrenergic receptors, in the guinea-pig isolated trachea, using CHF 1026 as reference compound.
Isolated guinea-pig trachea: interactions with beta-2 adrenergic receptors
Trachea strips were isolated and prepared according to the method described by Emerson J and Machay D in J Pharm Pharmacol 1979, 31, 798, immersed in Krebs-Henseleit solution (37° C., 95% O2 +5% CO2), subjected to an initial tension of 1 g and contracted with carbachol (3×10^-7 M).
Dose-response curves of CHF 1255 and CHF 1026 were recorded in the absence and in the presence of 10^-6 M propranolol, used as antagonist and added to the bath before the stimulation with carbachol.
The obtained results are shown in Table 2, expressed as potency (EC50 calculated from t he dose--response curve) and intrinsic activity (α, isoproternol=1).

[4] = tested on: arterial rat hind quarter; experiment: Rat perfused hind quarter; vasodilating action; details: for Emax: Rattus norvegicus; for ED40, K+ induced contraction / ED40, norepinephrine induced contraction / ED40, 5-HT induced contraction: dose decreasing contraction by 40%; for ED40, K+ induced contraction: K+ 40 mM; for ED40, 5-HT induced contraction: serotonin 5×10^-7 M
Procedure: Rat perfused hind quarter; vasodilating action
The vasodilating effect of CHF 1255 has been evaluated in the arterial rat hind quarter perfused with Krebs-Henseleit solution at constant flow.
The increase of arterial resistance was induced by K^+ -enriched solution (40 mM), norepinephrine (5×10^-6 M) and serotonin (5×10^-7 M).
Papaverine and prazosin, powerful α-blocker vasodilator, were used as reference compounds.
ED40 =dose (moles) decreasing of 40% the contraction induced by the agonist. 100% was considered as the complete recduction of contraction.

[5] = tested on: anesthetized dog; experiment: Anesthetized dog: cardiovascular activity; type: in vivo, Beagle dog; details: anesthetized dog, i.v.
Procedure: The interesting hemodynamic properties of CHF 1255 were confirmed in vivo in the anesthetized dog.
Anesthesized dog: cardiovascular activity
Beagle dogs were anesthetized with sodium pentobarbital (30 mg/kg iv) thoracotomized and monitored by recording cardiocirculatory parameters.
CHF 1255 and the reference drugs (amrinone and xamoterol) were administered i.v. in a bolus.
CHF 1255 at the doses of 0.3-1.3 μmoles/kg i.v. confirmed its activity in changing hemodynamic parameters.

[6] = tested on: beta-1; details: background art, cited from earlier work
[7] = Table I, isolated rat left atrium, 4 Hz stimulation, confidence limits in parentheses
[8] = Table I, isoproterenol taken=1, confidence limits in parentheses, read-out: α (intrinsic activity), left atrium (force)
[9] = Table I, isolated rat right atrium, confidence limits in parentheses
[10] = Table I, isoproterenol taken=1, confidence limits in parentheses, read-out: α (intrinsic activity), right atrium (frequency)
[11] = Table 3, inotropic activity, rat left atrium
[12] = Table 3, isoproterenol=1, read-out: α, left atrium (force)
[13] = Table 3, chronotropic activity, rat right atrium
[14] = Table 3, isoproterenol=1, read-out: α, right atrium (frequency)

T1 sequence (Q8K4Z4 whole entry): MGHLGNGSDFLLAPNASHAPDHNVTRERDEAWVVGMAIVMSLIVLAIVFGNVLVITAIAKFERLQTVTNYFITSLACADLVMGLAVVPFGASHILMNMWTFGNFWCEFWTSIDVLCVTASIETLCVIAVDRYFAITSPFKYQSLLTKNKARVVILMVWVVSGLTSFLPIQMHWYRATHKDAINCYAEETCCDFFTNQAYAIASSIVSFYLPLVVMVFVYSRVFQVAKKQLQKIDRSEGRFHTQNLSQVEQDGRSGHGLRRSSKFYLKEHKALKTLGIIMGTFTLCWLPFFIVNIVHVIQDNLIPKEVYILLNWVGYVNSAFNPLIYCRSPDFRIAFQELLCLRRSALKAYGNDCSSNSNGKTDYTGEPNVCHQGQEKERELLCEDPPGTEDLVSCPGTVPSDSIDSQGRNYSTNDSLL

EC50 [1, 7]: 900 nM | EC50 [2, 9]: 130 nM | Emax ([3]; guinea pig, isoproterenol=1, without propranolol, read-out: α in absence of propranolol): 99% | EC50 ([3]; with 10^-6 M propranolol, read-out: EC50 in presence of propranolol): 130000 nM | EC50 ([3]; without propranolol, read-out: EC50 in absence of propranolol): 230 nM | α in presence of propranolol ([3]; isoproterenol=1, with 10^-6 M propranolol): 0.94
SMILES: CC(CCc1ccc(O)cc1)NC1CCc2cc(O)c(O)cc2C1 (centres unmarked) [CHF 1026, 2-[1-(4-hydroxyphenyl)-but-3-ylamino]-6,7-dihydroxy-1,2,3,4-tetrahydronaphthalene, reference compound]
Emax [1, 8]: 81% | Emax [2, 10]: 86% | Effect of propranolol on dose-response curve ([3]; 10^-6 M propranolol): parallelely shifted to the right, showing a competitive antagonistic action

SMILES: COc1ccc2c(c1OC)CCC(NCC(O)c1ccc(O)cc1)C2 (centres unmarked) [CHF 1296]
Activity in isolated rat left atrium and right atrium (in words) [1]: completely inactive

SMILES: COc1ccc2c(c1OC)CCC(NCC(O)c1cccc(O)c1)C2 (centres unmarked) [CHF 1297]
Activity in isolated rat left atrium and right atrium (in words) [1]: completely inactive

SMILES: COc1ccc2c(c1OC)CCC(N[C@H](C)[C@@H](O)c1ccc(O)cc1)C2 (some centres unmarked) [CHF 1388, (αR,βS)-5,6-dimethoxy-2-[2-(4-hydroxyphenyl)-2-hydroxy-1-methylamino]-2-hydroxy-I-methylethylamino]--,2,3,4-tetrahydronaphthalene hydrochloride]
Inotropic activity of diastereoisomeric mixture (in words) [1]: did not show any inotropic activity | Contribution to vasodilating activity of CHF 1255 [4]: vasodilating activity of CHF 1255 is mainly due to CHF 1388

SMILES: COc1ccc2c(c1OC)CCC(N[C@@H](C)[C@H](O)c1ccc(O)cc1)C2 (some centres unmarked) [CHF 1389, (αS, βR)-5,6-Dimethoxy-2-[2-(4-hydroxyphenyl)-2-hydroxy-1-methylethylemino]-1,2,3,4-tetrahydronaphthalene hydrochloride]
Inotropic activity of diastereoisomeric mixture (in words) [1]: as effective as CHF 1255 in the rat isolated left atrium

EC50 [1, 11]: 26600 nM | EC50 [2, 13]: 155000 nM
SMILES: Nc1cc(-c2ccncc2)c[nH]c1=O [amrinone]
Emax [1, 12]: 29% | Emax [2, 14]: 147%

EC50 [1, 11]: 1190 nM | EC50 [1, 7]: 1200 nM | EC50 [2, 13]: 1890 nM | EC50 [2, 9]: 1900 nM
SMILES: NCCc1ccc(O)c(O)c1 [dopamine]
Emax [1, 12]: 95% | Emax [1, 8]: 95% | Emax [2, 14]: 106% | Emax [2, 10]: 106%

SMILES: COc1ccc(Cc2nccc3cc(OC)c(OC)cc23)cc1OC [papaverine, Papaverine]
Activity against contraction by the different agents (in words) ([4]; K+, norepinephrine, serotonin): same ED40 for the different experimental conditions | Emax ([4]; read-out: α (efficacy), 5-HT induced contraction): 90% | Emax ([4]; read-out: α (efficacy), K+ induced contraction): 90% | Emax ([4]; read-out: α (efficacy), norepinephrine induced contraction): 95% | ED40, K+ induced contraction [4]: 6.5e-08 mol | ED40, norepinephrine induced contraction ([4]; norepinephrine 5×10^-6 M): 4.5e-08 mol | ED40, 5-HT induced contraction [4]: 5e-08 mol

SMILES: COc1cc2nc(N3CCN(C(=O)c4ccco4)CC3)nc(N)c2cc1OC [prazosin]
Emax ([4]; 100% = complete reduction, norepinephrine 5×10^-6 M, read-out: α (efficacy), norepinephrine induced contraction): 96% | ED40, K+ induced contraction [4]: inactive | ED40, norepinephrine induced contraction ([4]; norepinephrine 5×10^-6 M): 1.5e-11 mol | ED40, 5-HT induced contraction [4]: inactive

SMILES: O=C(NCCNCC(O)COc1ccc(O)cc1)N1CCOCC1 (centres unmarked) [xamoterol, xamoterol fumarate]
EC50 [1]: 4.98 nM | Emax ([1]; read-out: α, left atrium (force)): 33% | EC50 [2]: 4.71 nM | Emax ([2]; read-out: α, right atrium (frequency)): 76% | Hemodynamic effects (in words) [5]: negligible | Agonistic action relative to isoproterenol ([6]; % that of isoproterenol): 40% | Tolerability (in words) ([6]; vs prenalterol): better tolerated
